In US20190350885A1, “PROPHYLAXIS TREATMENT FOR ACUTE MYELOID LEUKEMIA” (Indiana University Research and Technology Corporation, priority 2017, published 2019):
Entries after “also recorded” stand apart in the source; their conditions may differ.

Key:
Tet2-KO mice = assay: LPS-induced acute inflammation (emergency granulopoiesis/hematopoiesis) in mice; assay type: in vivo, mouse; details: for LPS-induced expansion of LSK cells in bone marrow / LPS-induced emergency neutrophil production in peripheral blood (emergency granulopoiesis): LPS 0.8 mg/kg i.p. one dose, drug two days before and two days after LPS, day 2 post LPS; for LPS-induced emergency neutrophil production in peripheral blood (emergency granulopoiesis): APX3330 20 mg/kg twice a day i.p., SHP099 50 mg/kg daily gavage
Description: Mice, LPS treatment and peripheral blood analysis. All mice were bred and maintained under specified pathogen-free (SPF) conditions at an animal facility at Indiana University School of Medicine. Experiments with mice were approved by the Institutional Animal Care and Use Committee (IACUC) of Indiana University School of Medicine. Tet2-knockout mice (Tet2^−/−, or Tet2-KO, CD45.2) is on C57BL/6 genetic background and has been previously described in Li et al., Blood 118, 4509-4518 (2011). Normal C57BL/6 (wild type, CD45.2) mice were purchased from The Jackson Laboratory and used as controls for all experiments. Whenever possible littermates were used as controls for all experiments.
(§1) Lipopolysaccharide (LPS) was purchased from Sigma (Cat # L8643) and dissolved in sterile phosphate-buffered saline (PBS) prior to being given to the mice for one dose only (0.8 mg/kg, i.p.). APX3330 (also referred to herein as E3330) was dissolved in Cremophor:EtOH (1:1) (Cremophor were purchased from Sigma, Cat # C5135) for making solution stock and then diluted in PBS prior to be used for pre-LPS treatment or post-LPS treatment (20 mg/kg, twice a day, i.p.). SHP099 (provided by Norvartis), was dissolved in 0.5% Methylcellulose (Sigma, Cat# M0262) and 0.1% Tween-80 (Fisher Scientific, Cat #BP338-500) and fed to animals by gavage (daily, 50 mg/kg). Male and female mice between 3-4 weeks (juvenile mice) or 8-16 weeks (adult mice) of age were used for LPS or LPS plus APX3330 experiments. Age and sex matched mice were always used as naïve (Day 0) controls. Aged Tet2-KO mice (male or female, 6-8 months of age) were used for APX3330 or SHP099 treatment in FIGS. 11A-11D.
(§2) Hematological analysis on peripheral blood (PB, from tail-bleeding) was run by an automated cell counter machine (Drew Hemavet 950). Total bone marrow (BM) cells were harvested from two femurs and two tibias of mice and filtered on 50-μm sterile filters. BM cells were always kept on ice or in refrigeration and stored in sterile blocking buffer containing 2% rat-serum prior to analysis. BM cellularity (viable cell counts) was analyzed by an automated cell counter (Beckman the Vi-CELL™ Cell Counter for Cell Viability Analyzer).
(§3) Flow cytometry. Non-lysed BM cells were used for analysis of erythroid lineage and progenitor cells (Ter119 and CD71 staining). Remaining flow cytometry analysis was performed on lysed bone marrow cells (Lysis Buffer, BD, Cat #555899). Antibodies against Ter119, Mac1, Gr1, B220, CD3, CD4 and CD8 were used for mature cells labeling (Linage labeling). Progenitor cells were labeled and analyzed by indicated markers. Antibody-labeled BM cells were run on a BD FACS-CANTO II machine with a two-laser and six-filter configuration. The properly compensated flow data were analyzed by Flow Jo software (V10.2). Events plotting, calculation of frequency and mean of fluorescence intensity (MFI), and histogram overlaying were analyzed by Flow Jo software.
It was next examined if APX3330 or SHP099 could repress inflammation and “emergency hematopoiesis” in Tet2-KO mice in vivo. It was first assessed if APX3330 or SHP099 could normalize LPS-induced acute inflammation. Before challenging the mice with LPS, wildtype and Tet2-KO mice were prophylactically treated with APX3330 or SHP099 for two days. Post LPS treatment, APX3330 or SHP099 was continuously injected in these mice for another two days (FIG. 13A). On day 2, post LPS treatment, mice were sacrificed and analyzed.

[1] = test system: Tet2-KO Lin-negative bone marrow cells; assay: CFU (colony forming unit) assay, primary and secondary replating; assay type: cell-based, mouse; details: primary and secondary plating, in vitro
Description: CFU assay. Bone marrow Lin-negative cells or LSK cells were isolated as described above and platted in a CFU assay using MethoCult™ GF M3434 (Stem Cell). Colonies were counted after 7-days of culture.

aged Tet2-KO mice = assay: Treatment of aged Tet2-KO mice with early signs of MPN; assay type: in vivo, mouse; details: for frequency of LSKs and CMPs / neutrophil counts (absolute numbers, burden) in peripheral blood / neutrophil frequency (percentage) in peripheral blood / platelet counts / red blood cell (RBC) counts (anemia) / serum IL-6 levels / spleen weight / splenomegaly / white blood cell (WBC) burden/count: treatment for 14 days; for early signs of MPN: aged Tet2-KO mice
Protocol: as §1, §2, §3
Multiplex cytokine assays. Serum samples were prepared from PB (tail-bleeding) and diluted in sterile PBS (1 to 2 dilution(s)). Thirty-one cytokines or chemokines were quantified by multiplex immunoassay with a BioPlex 200 instrument (Eve Technologies, Mouse Cytokine Array/Chemokine Array 31-Plex, Cat # MD31).
Statistics. All experimental procedures on Tet2-KO samples were run in parallel with wildtype controls (sex and age matched littermate controls when possible) for observing experimental variabilities. Analysis of grouped data was not blinded and no samples were excluded. Aged Tet2-KO mice were randomized into two groups for treatment with APX3330 or vehicle, SHP099 or vehicle (FIGS. 11A-11D). P-value was calculated using an unpaired t-test for comparing means of two groups (GraphPad Prism 6.0). Error bars in FIGS. 1-10 and 11A indicate the standard error of mean (s.e.m.) while error bars in FIG. 11C indicate the standard deviation (s.d.). Except that the secondary cBMT was performed in only one independent experiment for each group, all other assays were performed in at least two independent experiments with at least 3-5 biological replicates in total.
Furthermore, aged Tet2-KO maintained higher level of serum IL-6 compared to wildtype mice (FIG. 13H). 6-month old Tet2-KO mice were treated with APX3330 or SHP099 to assess the potential therapeutic benefit of these drugs in older mice (daily treatment for 14 days, FIG. 13I).

Morrbid promoter = assay: CHIP-qPCR assay of IκBζ and Stat3 binding; assay type: cell-based, mouse; details: Tet2-KO Lin-negative bone marrow cells
Description: CHIP-qPCR assay. BM Lin-negative cells were used to extract chromatin DNA using MAGnify™ Chromatin Immunoprecipitation System (ThermoFisher) according to the manufacturer's instruction. CHIP purified chromatin DNA and input DNA were normalized to identical concentration for qPCR validation and enrichment analysis (1% enrichment of input level was defined as unit 1). The following antibodies were used for chromatin precipitation:Anti-IκBζ and Anti-Stat3 (Cell Signaling Technologies).

phospho-Stat3 = phospho-Stat3 expression in Tet2-KO Lin-negative cells; assay type: cell-based, mouse
[2] = aged (6-month old) Tet2-KO mice
[3] = aged (6-month old) Tet2-KO mice, listed as E3330

| SMILES | LPS-induced expansion of LSK cells in bone marrow (Tet2-KO mice) | LPS-induced emergency neutrophil production in peripheral blood (emergency granulopoiesis) (Tet2-KO mice) | colony forming ability (CFU formation) [1] | frequency of LSKs and CMPs (aged Tet2-KO mice; [2]) | neutrophil counts (absolute numbers, burden) in peripheral blood (aged Tet2-KO mice; [2]) | neutrophil frequency (percentage) in peripheral blood (aged Tet2-KO mice; [2]) | platelet counts (aged Tet2-KO mice; [2]) | red blood cell (RBC) counts (anemia) (aged Tet2-KO mice; [2]) | serum IL-6 levels (aged Tet2-KO mice; [2]) | spleen weight / splenomegaly (aged Tet2-KO mice; [2]) | white blood cell (WBC) burden/count (aged Tet2-KO mice; [2]) | early signs of MPN (aged Tet2-KO mice) | IκBζ and Stat3 binding to Morrbid promoter (Morrbid promoter) | further results |
| --- | --- | --- | --- | --- | --- | --- | --- | --- | --- | --- | --- | --- | --- | --- |
| CCCCCCCCCC(=CC1=C(C)C(=O)C(OC)=C(OC)C1=O)C(=O)O [APX3330] | significant correction; also recorded: effectively repressed; also recorded: represses the expansion of LSK cells | significant correction in the enhanced production of neutrophils; also recorded: effectively repressed; also recorded: represses emergency neutrophil production | normalization of colony formation; also recorded: block the enhanced colony forming activity | failed to reverse | significantly reduced | significantly reduced | restored | restores; also recorded: rescued to normal levels | reduced | a reduction in spleen weight was also observed in drug treated Tet2-KO mice, although it did not reach statistical significance; also recorded: failed to alter splenomegaly | significantly reduce; also recorded: restores | reverses early signs of MPN | reduced IKBζ and Stat3 binding to Morrbid promoter | LPS-induced emergency neutrophil production in peripheral blood (emergency granulopoiesis) (Tet2-KO mice; listed as E3330): repressed; LPS-induced expansion of LSK cells in bone marrow (Tet2-KO mice; listed as E3330): repressed; bone marrow cellularity (Tet2-KO mice; LPS-treated wild type and Tet2-KO mice, short-term treatment): maintained normal bone marrow cellularity; colony forming ability (CFU formation) ([1]; listed as E3330): corrected the enhanced colony forming ability; hematocrits (HCT) (aged Tet2-KO mice; [2]): rescued to normal levels; neutrophil counts (absolute numbers, burden) in peripheral blood (aged Tet2-KO mice; [3]): rescue; neutrophil frequency (percentage) in peripheral blood (aged Tet2-KO mice; [3]): rescue; serum IL-6 levels (aged Tet2-KO mice; [3]): rescue; early signs of MPN (aged Tet2-KO mice; listed as E3330): reversed early signs of MPN; IκBζ and Stat3 binding to Morrbid promoter (Morrbid promoter; listed as E3330): rescues the enhanced binding of IκBζ and Stat3 to the Morribid promoter |
| CC1(N)CCN(c2cnc(-c3cccc(Cl)c3Cl)c(N)n2)CC1 [SHP099, 6-(4-amino-4-methyl-1-piperidinyl)-3-(2,3-dichlorophenyl)-2-pyrazinamine] | significant correction; also recorded: effectively repressed | significant correction in the enhanced production of neutrophils; also recorded: effectively repressed | decreased; also recorded: block the enhanced colony forming activity; also recorded: corrected the enhanced colony forming ability | failed to reverse | significantly reduce; also recorded: rescue | rescue | restored | restores | reduced; also recorded: rescue | a reduction in spleen weight was also observed in drug treated Tet2-KO mice, although it did not reach statistical significance | significantly reduce; also recorded: restores | reversed early signs of MPN | decreased; also recorded: rescues the enhanced binding of IκBζ and Stat3 to the Morribid promoter | expression of phospho-Stat3 (phospho-Stat3): decreased expression of phospho-Stat3 |
